Consider 1 molecule from the CheMixHub ionic liquid set.

± gives the uncertainty stated by the source.

The nature of this series: xn = mol fraction of the nth substance listed. As to conditions: 101 kPa, x1 = 1.

As to `CC[n+]1ccn(C)c1.O=S(=O)([O-])C(F)(F)F` + O=S(=O)([N-]S(=O)(=O)C(F)(F)F)C(F)(F)F.[Li+], the electrical conductivity is, setting by setting: (288.15 K) 0.605 ± 0.061 S/m; (298.15 K) 0.859 ± 0.086 S/m; (333.15 K) 2.24 ± 0.22 S/m.
